Test results reported in patent US9635859B2, “Pesticidal compositions and processes related thereto” (Dow AgroSciences LLC, priority 2012, dated 2017).

Test system: Beet Armyworm (Spodoptera exigua)
Test: Bioassays on BAW, 128-well diet tray assay
Format: in vivo
Settings: percent mortality, second instar larvae, 50 μg/cm^2 on artificial diet, five to seven days, 25° C.; Table 3
Experimental: Certain molecules disclosed in this document were tested against BAW and CEW and CL using procedures described in the following examples. In the reporting of the results, the “BAW & CEW & CL Rating Table” was used (See Table Section).
Bioassays on BAW (Spodoptera exigua)
Bioassays on BAW were conducted using a 128-well diet tray assay. one to five second instar BAW larvae were placed in each well (3 mL) of the diet tray that had been previously filled with 1 mL of artificial diet to which 50 μg/cm^2 of the test compound (dissolved in 50 μL of 90:10 acetone-water mixture) had been applied (to each of eight wells) and then allowed to dry. Trays were covered with a clear self-adhesive cover, and held at 25° C., 14:10 light-dark for five to seven days. Percent mortality was recorded for the larvae in each well; activity in the eight wells was then averaged. The results are indicated in the table entitled “Table 3: Assay Results” (See Table Section).

Compound | BAW Rating
Cc1cc(/C=C/C(c2cc(Cl)c(Cl)c(Cl)c2)C(F)(F)F)ccc1C(=O)NCC(=O)NCC(F)(F)F (stereo not drawn) [AC78] | A (50-100)
O=C(CNC(=O)c1ccc(/C=C/C(c2cc(Cl)cc(Cl)c2)C(F)(F)F)cc1F)NCC(F)(F)F (stereo not drawn) [AC62] | A (50-100)
O=C(CC(F)(F)F)NNc1ccc(/C=C/C(c2cc(Cl)c(Cl)c(Cl)c2)C(F)(F)F)cc1 (stereo not drawn) [CC51] | A (50-100)
Fc1cc(F)cc(C(/C=C/c2ccc(-n3cncn3)cc2)C(F)(F)F)c1 (stereo not drawn) [DC8] | A (50-100)
O=C(CC(F)(F)F)NCc1ccc(/C=C/C(c2cc(Cl)c(Cl)c(Cl)c2)C(F)(F)F)cc1 (stereo not drawn) [CC6] | A (50-100)
CNc1cc(/C=C/C(c2cc(Cl)cc(Cl)c2)C(F)(F)F)ccc1-n1cncn1 (stereo not drawn) [DC57, (E)-5-(3-(3,5-Dichlorophenyl)-4,4,4-trifluorobut-1-en-1-yl)-N-methyl-2-(1H-1,2,4-triazol-1-yl)aniline] | A (50-100)
O=C(NCc1ccc(/C=C/C(c2ccc(Cl)c(Cl)c2)C(F)(F)F)cc1Cl)C1CC1 (stereo not drawn) [CC17] | A (50-100)
FC(F)(F)c1cc(/C=C/C(c2cc(Cl)cc(Cl)c2)C(F)(F)F)ccc1-n1cncn1 (stereo not drawn) [DC51] | A (50-100)
CC(=O)NCc1ccc(/C=C/C(c2cc(Cl)cc(Cl)c2)C(F)(F)F)cc1Cl (stereo not drawn) [CC7, (E)-N-(2-Chloro-4-(3-(3,5-dichlorophenyl)-4,4,4-trifluorobut-1-en-1-yl)benzyl)acetamide] | A (50-100)
Cc1cc(/C=C/C(c2cc(Cl)cc(Cl)c2)C(F)(F)F)ccc1-n1cncn1 (stereo not drawn) [DC62] | A (50-100)
O=C(Cc1ccc(Cl)nc1)NC1CCc2cc(/C=C/C(c3cc(Cl)c(F)c(Cl)c3)C(F)(F)F)ccc21 (stereo not drawn) [BC9] | A (50-100)
Cc1cc(/C=C/C(c2cc(Cl)cc(Cl)c2)C(F)(F)F)ccc1C(=O)NCc1cnccn1 (stereo not drawn) [AC43] | A (50-100)
FC(F)(F)C(/C=C/c1ccc(-n2cncn2)c(Br)c1)c1cc(Cl)cc(Cl)c1 (stereo not drawn) [DC47] | A (50-100)
O=C(CNC(=O)c1ccc(/C=C\C(c2cc(Cl)c(Cl)c(Cl)c2)C(F)(F)F)cc1Br)NCC(F)(F)F (stereo not drawn) [AC95, (Z)-2-Bromo-N-(2-oxo-2-((2,2,2-trifluoroethyl)amino)ethyl)-4-(4,4,4-trifluoro-3-(3,4,5-trichlorophenyl)but-1-en-1-yl)benzamide] | A (50-100)
O=C(CNC(=O)c1ccc(/C=C/C(c2cc(Cl)c(F)c(Cl)c2)C(F)(F)F)cc1[N+](=O)[O-])NCC(F)(F)F (stereo not drawn) [AC98] | A (50-100)
O=C(CC(F)(F)F)NCc1ccc(/C=C/C(c2cc(Cl)c(Cl)c(Cl)c2)C(F)(F)F)cc1C(F)(F)F (stereo not drawn) [CC24] | A (50-100)
Cc1cc(/C=C/C(c2cc(Cl)c(Cl)c(Cl)c2)C(F)(F)F)ccc1C(=O)NC(C)(C)c1ccccn1 (stereo not drawn) [AC27] | A (50-100)
Cc1cc(/C=C/C(c2cc(Cl)cc(Cl)c2)C(F)(F)F)ccc1C(=O)NCC(=O)NC1CC1 (stereo not drawn) [AC40] | A (50-100)
FC(F)(F)C(/C=C/c1ccc(-n2cncn2)c(Cl)c1)c1cc(Cl)c(Cl)c(Cl)c1 (stereo not drawn) [DC49] | A (50-100)
Cc1cc(/C=C/C(c2cc(Cl)cc(Cl)c2)C(F)(F)F)ccc1C(=O)Nc1ccc(Cl)nc1 (stereo not drawn) [AC59] | A (50-100)
O=C(NC1CS(=O)(=O)C1)c1ccc(/C=C/C(c2cc(Cl)cc(Cl)c2)C(F)(F)F)cc1F (stereo not drawn) [AC83, (E)-4-(3-(3,5-Dichlorophenyl)-4,4,4-trifluorobut-1-en-1-yl)-N-(1,1-dioxidothietan-3-yl)-2-fluorobenzamide] | A (50-100)

Compound | BAW Rating
O=C(CC(F)(F)F)NCc1ccc(/C=C/C(c2ccc(Cl)c(Cl)c2)C(F)(F)F)cc1Cl (stereo not drawn) [CC18] | A (50-100)
O=C(NC1CSC1)c1ccc(/C=C/C(c2cc(Cl)c(Cl)c(Cl)c2)C(F)(F)F)cc1Cl (stereo not drawn) [AC29] | A (50-100)
N#Cc1cc(/C=C/C(c2cc(Cl)cc(C(F)(F)F)c2)C(F)(F)F)ccc1-n1cncn1 (stereo not drawn) [DC33] | A (50-100)
O=C(NCc1ccc(/C=C/C(c2cc(Cl)cc(Cl)c2)C(F)(F)F)cc1C(F)(F)F)C1CC1 (stereo not drawn) [CC21] | A (50-100)
O=C(NCc1ccc(Cl)nc1)c1ccc(/C=C/C(c2cc(Cl)c(F)c(Cl)c2)C(F)(F)F)cc1Br (stereo not drawn) [AC63] | A (50-100)
CCNC(=O)NCc1ccc(/C=C/C(c2cc(Cl)c(Cl)c(Cl)c2)C(F)(F)F)cc1C(F)(F)F (stereo not drawn) [CC32] | A (50-100)
CONC(=O)CNC(=O)c1ccc(/C=C/C(c2cc(Cl)c(Cl)c(Cl)c2)C(F)(F)F)cc1Br (stereo not drawn) [AC110] | A (50-100)
Cc1cc(/C=C/C(c2cc(Cl)cc(Cl)c2)C(F)(F)F)ccc1C(=O)NCc1nccn1C (stereo not drawn) [AC50] | A (50-100)
O=C(CNC(=O)c1ccc(/C=C/C(c2cc(Cl)c(Cl)c(Cl)c2)C(F)(F)F)cc1Br)NCC(F)(F)F (stereo not drawn) [AC66] | A (50-100)
Cc1cc(/C=C/C(c2cc(Cl)cc(Cl)c2)C(F)(F)F)ccc1C(=O)NC1CSC1 (stereo not drawn) [AC10] | A (50-100)
CCNC(=O)NCc1ccc(/C=C/C(c2cc(Cl)cc(Cl)c2)C(F)(F)F)cc1Cl (stereo not drawn) [CC31, (E)-1-(2-Chloro-4-(3-(3,5-dichlorophenyl)-4,4,4-trifluorobut-1-en-1-yl)benzyl)-3-ethylurea] | B (More than 0-Less than 50)
O=C(NC1CS(=O)(=O)C1)c1ccc(/C=C/C(c2cc(Cl)c(Cl)c(Cl)c2)C(F)(F)F)cc1Cl (stereo not drawn) [AC30] | A (50-100)
Cc1cc(/C=C/C(c2cc(Cl)c(F)c(Cl)c2)C(F)(F)F)ccc1C(=O)NCc1ccnc(Cl)c1 (stereo not drawn) [AC54] | A (50-100)
N#Cc1cc(/C=C/C(c2cc(Cl)cc(Cl)c2)C(F)(F)F)ccc1-n1cnc([N+](=O)[O-])n1 (stereo not drawn) [DC37] | A (50-100)
FC(F)(F)c1cc(C(/C=C/c2ccc(-n3cncn3)cc2)C(F)(F)F)cc(C(F)(F)F)c1 (stereo not drawn) [DC16] | A (50-100)
O=C(NC1CCNCC1)c1ccc(/C=C/C(c2cc(Cl)c(Cl)c(Cl)c2)C(F)(F)F)cc1Br (stereo not drawn) [AC114, (E)-2-Bromo-N-(piperidin-4-yl)-4-(4,4,4-trifluoro-3-(3,4,5-trichlorophenyl)but-1-en-1-yl)benzamide] | A (50-100)
FC(F)(F)C(/C=C/c1ccc(-n2cncn2)cc1Cl)c1cc(Cl)cc(Cl)c1 (stereo not drawn) [DC67] | A (50-100)
N#Cc1cc(/C=C/C(c2cc(Cl)c(Cl)c(Cl)c2)C(F)(F)F)ccc1-n1cnc([N+](=O)[O-])n1 (stereo not drawn) [DC40, (E)-2-(3-Nitro-1H-1,2,4-triazol-1-yl)-5-(4,4,4-trifluoro-3-(3,4,5-trichlorophenyl)but-1-en-1-yl)benzonitrile] | A (50-100)
CC(=O)N1CCC(NC(=O)c2ccc(/C=C/C(c3cc(Cl)c(Cl)c(Cl)c3)C(F)(F)F)cc2Br)CC1 (stereo not drawn) [AC103, (E)-N-(1-Acetylpiperidin-4-yl)-2-bromo-4-(4,4,4-trifluoro-3-(3,4,5-trichlorophenyl)but-1-en-1-yl)benzamide] | A (50-100)
C/C(=C\C(c1cc(Cl)cc(Cl)c1)C(F)(F)F)c1ccc(-n2cncn2)cc1 (stereo not drawn) [DC68, (E)-1-(4-(4-(3,5-Dichlorophenyl)-5,5,5-trifluoropent-2-en-2-yl)phenyl)-1H-1,2,4-triazole] | A (50-100)
O=C(NCc1ccc(/C=C/C(c2cc(Cl)c(Cl)c(Cl)c2)C(F)(F)F)cc1C(F)(F)F)C1CC1 (stereo not drawn) [CC22] | A (50-100)
